Data taken from PMC10644352, “Bromodomain Factor 5 as a Target for Antileishmanial Drug Discovery” (ACS Infectious Diseases, 2023).

Tests used:
[1] = molecular target: T1, bromodomain factor 5 (LdBDF5), second bromodomain BD5.2 (Leishmania donovani, UniProt A0ACM8QMJ0); assay: FP competition (also TSA shift; waterLOGSY and CPMG NMR positive, STD inconclusive); format: binding
T1 construct: gene CGC21_36735; BD5.2 (second bromodomain of the N-terminal tandem repeat)
T1 sequence (A0ACM8QMJ0 161-300): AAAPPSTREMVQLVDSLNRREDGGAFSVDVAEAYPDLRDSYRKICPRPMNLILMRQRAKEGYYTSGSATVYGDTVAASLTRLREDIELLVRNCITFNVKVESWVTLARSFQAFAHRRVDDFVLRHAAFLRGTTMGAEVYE

[2] = molecular target: T2, bromodomain factor 5 (LdBDF5), first bromodomain BD5.1 (Leishmania donovani, UniProt A0ACM8QMJ0); assay: ITC (also MST Kd […], FP competition IC50 […], TSA, waterLOGSY/STD/CPMG NMR); format: binding
T2 construct: gene CGC21_36735; BD5.1 (first bromodomain of the N-terminal tandem repeat)

SMILES: CCn1cc(-c2cccc(C(F)(F)F)c2)c2sc(C(=N)NC3CCS(=O)(=O)CC3)cc2c1=O [I-BRD9]
- IC50 [1]: 24.7 ± 6.2 µM

SMILES: COc1ccc(CCc2nc3cc(-c4c(C)noc4C)ccc3n2C[C@H](C)N2CCOCC2)cc1Cl [SGC–CBP30]
- Kd [2]: 0.281 ± 0.0123 µM
